Reference: patent US20030049709A1, “Programmed cell death and Ich-3” (priority 1996, published 2003)

Assays:
[1] = target: ICH-3 protein (mouse) (mouse) (UniProt P70343)
[2] = system: poly(ADP-ribose) polymerase (PARP) cleavage; details: cited from earlier work
[3] = system: apoptosis in an cell-free system; details: read-out: concentration to cause 50% inhibition of apoptosis; cited from earlier work
thymocytes = assay: Thymocyte apoptosis under other apoptotic stimuli; type: cell-based, mice; details: Ich-3 mutant thymocytes; dexamethasone 1 μM; 10 nM PMA and 500 nM Ca2+ ionophore
Procedure: Thymocytes are sensitive to several apoptotic stimuli such as irradiation and dexamethasone (Cohen, J. J., et al., Annu. Rev. Immunol. 10:267-293 (1992)). To determine if apoptosis of thymocytes is affected by a mutation in the Ich-3 locus, Ich-3−/− thymocytes were examined for defects in apoptosis using a variety of apoptotic induction signals. Thymocytes isolated from 6-7 week old, wild-type and Ich-3 mutant mice were treated with 500 rads of y-irtadiation, or dexamethasone (1(IM, or 10 nM phorbol myristate acetate (PMA) and 500 nM Ca^2+ ionophore, and cell viability was examined 10 hr or 24 hr after treatment by using FCAS analysis after staining with propidine iodine. (Schwartz, et al., “Cell Death—Methods in Cell Biology.” vol. 46, Academic Press).

embryonic fibroblasts = assay: Granzyme/perforin induced apoptosis of embryonic fibroblasts (Hoechst dye); type: cell-based, mice; details: Ich-3−/− EF cells; up to 0.8 μg/ml granzyme with 50 ng/ml perforin
Procedure: FIGS. 9A-9B. Ich-3 deficient EF cells are resistant to Granzyme B and Granzyme 3 induced apoptosis. Embryonic fibroblasts from Ich-3−/− and wild type controls were treated with varying concentrations of granzyme B (FIG. 9A) or granzyme 3 (FIG. 9B) in the presence of a constant amount of perforin (50 ng/ml) for a period of 2 and 8 hrs, respectively. The percentage of apoptosis cells was determined from cell counts after staining with Hoechst dye (Chen et al., 1995). Control wells contained cells alone incubated with or without perforin. Data points represent the percentage of apoptotic cells for a particular dilution of granzyme minus the percentage of apoptotic cells observed in medium alone.
Granule serine protease (GraB) derived from cytotoxic T lymphocytes (CTL) can induce apoptosis in the presence of the pore forming protein perforin (Shi et al., J. Exp. Med. 176:1521-1529 (1992)). To determine the role of ICH-3 in apoptosis induced by GraB, the ability of Ich-3−/− embryonic fibroblasts (EF) to undergo apoptosis following treatment with GraB or Granzyme 3 (Gra3) and perforin was examined. Embryonic fibroblasts from Ich-3−/− mice and wild type littermate controls were treated with varying concentrations of GraB or Gra3 in the presence of a constant amount of perforin (50 ng/ml) for a period of 2 and 8 hrs, respectively.

His-tagged ICH-3 protein = target: T1, His-tagged ICH-3 protein (Mus musculus, UniProt P70343); assay: In vitro cleavage assay of ICH-3 by GraB (Western blot); type: biochemical; details: 20 ng GraB, 30° C., 1 hour, 10 mM DTT
T1 construct: An EcoRI fragment from the cDNA clone BSNO12 encoding the full length Ich-3 was subdloned into EcoRI site of pTrcHis (Invitrogen); polyhistidine (six histidines) (N); made in house; host or cells: E. coli
T1 sequence (P70343 81-373): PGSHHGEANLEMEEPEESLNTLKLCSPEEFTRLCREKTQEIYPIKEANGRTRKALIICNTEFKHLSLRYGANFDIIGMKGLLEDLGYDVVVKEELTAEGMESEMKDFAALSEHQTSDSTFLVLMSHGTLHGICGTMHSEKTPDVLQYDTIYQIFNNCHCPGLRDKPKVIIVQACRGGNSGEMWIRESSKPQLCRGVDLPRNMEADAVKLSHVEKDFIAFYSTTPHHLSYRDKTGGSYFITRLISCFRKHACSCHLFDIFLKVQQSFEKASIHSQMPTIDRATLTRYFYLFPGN
Procedure: FIG. 5. Cleavage of ICH-3 protein by granzyme B. 10 μg His-tagged ICH-3 protein purified from E. coli was incubated with 20 ng of GraB in the presence of 10 mM DTT at 30° C. for 1 hour. The result was detected by Western blotting with a peptide antibody against p20 portion of ICH-3.
For in vitro cleavage of ICH-3 by GraB, […] purified His-tagged ICH-3 protein was incubated with 20 ng of GraB in the presence of 50 mM Tris-HCl, pH 7.5, 0.5 mM EDTA, 0.5 mM Sucrose and 10 mM DTT in a total volume of 10 μl. The mixture was incubated at 30° C. for 1 hour and the cleavage was detected by Western blotting with a peptide antibody against the p20 portion of ICH-3.
To examine whether GraB can cleave ICH-3, a His-tagged ICH-3 protein was expressed in E. coli. His-tagged ICH-3 protein purified from bacteria was mixed with or without active GraB and incubated at 30° C. for 1 hour. The cleavage products were identified by Western blot with a peptide antibodies against the p20 or a monoclonal antibody against p10 portion of ICH-3. As show in FIG. 5, the fulll length ICH-3 band disappeared after incubation with GraB: a new 20 kDa band appeared which is detected by an anti-ICH-3 p20 antibody and a new 10 kDa band which is recognized by a monoclonal antibody against p10 of ICH-3. […] Fragments around 30 kDa are the predicted sizes of the cleavages at Asp 59 and Asp 80. […]

Molecule: granzyme B (enzyme)
- percentage of apoptotic embryonic fibroblasts (Hoechst dye) after GraB and perforin [1]: 40%

Molecule: Ac-DEVD-CHO
- dose inhibiting PARP cleavage [2]: 1 nM
- IC50 [3]: 1000 nM

Molecule: phorbol myristate acetate [PMA and Ca^2+ ionophore]
- resistance of thymocytes to induced apoptosis (thymocytes): not resistant

Molecule: GraB: granule serine protease required for the cytotoxic activity of lymphocytes
- apoptosis of EF cells (embryonic fibroblasts): only baseline levels of apoptosis
- cleavage of ICH-3 (His-tagged ICH-3 protein): can cleave ICH-3 into p20 and p10

B1: Gra3: Granzyme 3 (protein, UniProt P49863 27-264, looked up)
Granzyme K: IIGGKEVSPHSRPFMASIQYGGHHVCGGVLIDPQWVLTAAHCQYRFTKGQSPTVVLGAHSLSKNEASKQTLEIKKFIPFSRVTSDPQSNDIMLVKLQTAAKLNKHVKMLHIRSKTSLRSGTKCKVTGWGATDPDSLRPSDTLREVTVTVLSRKLCNSQSYYNGDPFITKDMVCAGDAKGQKDSCKGDSGGPLICKGVFHAIVSGGHECGVATKPGIYTLLTKKYQTWIKSNLVPPHTN
- apoptosis of EF cells (embryonic fibroblasts): only baseline levels of apoptosis
